The test system of the assay is mouse model of relapse-remitting type ulcerative colitis. The experiment in a line: Ulcer score of the large intestine in the mouse model of colitis induced by 1% DSS (Example 1). The assay is classed as in vivo. The note with it: day of completion; score 1 = ulcer of 1 mm^2 or larger; antibodies 0.5 mg/mouse intraperitoneally once; sulfasalazine 200 mg/kg orally once a day. Here is the method: An aqueous solution of dextran sulfate (DSS) was administered to a mouse to induce relapse-remitting type ulcerative colitis. To this mouse model of relapse-remitting type ulcerative colitis, an anti-CD81 antibody was administered once and a relapse (recurrence)-inhibitory effect of single-dose administration of an anti-CD81 antibody on ulcerative colitis was examined by comparing with single-dose administration of an anti-TNF-α antibody and multiple-dose administration of sulfasalazine, both of which are the existing therapeutic agents.
Dextran sulfate (the product of TdB consultancy AB, an average molecular weight of 47,000) was dissolved in drinking water to prepare a 1% aqueous solution. […]
Four-week-old mice (BALB/cAnNCrj, male, the product of Charles River Laboratories Japan, Inc.) were purchased, and the mice in which no abnormality was found after six days of quarantine rearing were measured for body weight and then divided into six groups, where one group contained 10 mice. […]
On the day of completion of the experiment, 0.1 ml of a 2.5% brilliant blue 6B solution was administered to all groups of mice via tail vein. […] Subsequently, the large intestine was thoroughly washed with an ethanol solution and the size of ulcer was measured. […]

Data on one compound can be found in US20130004516A1, “DRUG FOR INFLAMMATORY BOWEL DISEASE” (DAINIPPON SUMITOMO PHARMA CO., LTD., priority 2010, published 2013).

As to `O=C(O)c1cc(/N=N/c2ccc(S(=O)(=O)Nc3ccccn3)cc2)ccc1O` [Sulfasalazine, sulfasalazine], the Ulcer score is listed as 0.1.
